In publication PMC10739246 (ACS Bio & Med Chem Au, 2023):
Converted amounts (≈) assume the structure as drawn. “Also recorded” adds a separate entry of the source. Where two headings read alike, the source gives them in different places.

Key:
MreB in B. subtilis MW10 = assay: MreB mobility assay; assay type: cell-based, Bacillus subtilis; conditions: B. subtilis MW10, 1 h of antibiotic exposure
Method: MreB is an actin homologue that forms filamentous structures along the lateral axis of the cell. It moves along the length of the cells in a spiraling pattern thereby driving lateral peptidoglycan synthesis.[36],[37] MreB mobility is sensitive to inhibition of peptidoglycan synthesis and so far, every cell wall synthesis inhibitor we tested abolished MreB movement (see Figure S70 for examples).
Expression of msfGFP-MreB was induced with 0.3% xylose. Pictures were taken after 1 h of antibiotic exposure. Two images of the same field of view were recorded 30 s apart and overlaid in ImageJ to visualize MreB mobility. A perfect overlap (yellow) indicates stalled MreB movement, while distinct red and green foci are indicative of MreB mobility. Scale bar 2 μm.
Fig. S70: MreB motility in B. subtilis MW10 after treatment with different cell wall synthesis inhibitors. Expression of GFP-MreB was induced with 0.3% xylose. Cells were treated with 1x […]
Two images of the same field of view were recorded 30 sec apart and overlaid in ImageJ to visualize MreB mobility. A perfect overlap (yellow) indicates stalled MreB movement while distinct red and green spots are indicative of MreB mobility. Scale bar 2 µm.

B. subtilis DSM402 [1] = assay: Peptidoglycan integrity assay (acetic acid/methanol fixation); conditions: 1x MIC; 30 min (cell wall inhibitors) or 60 min
[2] = test system: M. tuberculosis (MC26020); assay: microbe, parasite or virus in culture; assay type: cell-based, Mycobacterium tuberculosis; conditions: Mycobacterium tuberculosis, read-out: MIC M. tuberculosis (MC26020)
[3] = test system: cell wall biosynthesis in B. subtilis DSM402; assay: Summary of cell wall synthesis experiments; assay type: cell-based, Bacillus subtilis
[4] = test system: K. pneumoniae (ATCC 10031); assay: MIC, K. pneumoniae ATCC 10031; assay type: cell-based, Klebsiella pneumoniae; conditions: Klebsiella pneumoniae, ATCC10031
E. coli W3110 = assay: Bacterial cytological profiling (BCP) in E. coli W3110; assay type: cell-based, Escherichia coli; conditions: for DAPI / phase contrast / FM4-64: 1x MIC, 1 h; for DAPI: DNA condensation; for phase contrast: indicates cell lysis; for FM4-64: membrane stain; for gyrase inhibition / membrane damage: interpretation of BCP in E. coli
[5] = test system: PonA in B. subtilis TNVS45; assay: PonA localization; conditions: 1x MIC, 30 min (vancomycin) or 1 h
E. coli BCB472 = assay: GlpT localization (inner membrane) in E. coli BCB472; conditions: 1x MIC, 1 h; GFP-tagged membrane protein
[6] = test system: PbpB in B. subtilis EKB46; assay: PbpB localization; conditions: 1x MIC, 30 min (vancomycin) or 1 h
E. faecalis (ATCC 19433) = assay: MIC, E. faecalis ATCC 19433; assay type: cell-based, Enterococcus faecalis; conditions: Enterococcus faecalis, ATCC19433
B. subtilis DSM402 [7] = assay: Bacterial cytological profiling (BCP) in B. subtilis DSM402; assay type: cell-based, Bacillus subtilis; conditions: for DAPI / phase contrast / FM4-64: 1x MIC, 1 h; for DAPI: DNA condensation; for phase contrast: indicates cell lysis; for FM4-64: membrane stain; for gyrase inhibition / membrane damage: interpretation of BCP in B. subtilis
[8] = test system: S. aureus (ATCC 43300) MRSA; assay: MIC, microdilution, MRSA ATCC 43300; assay type: cell-based, Staphylococcus aureus; conditions: Staphylococcus aureus; norfloxacin-resistant strain
B. subtilis DSM402 [9] = assay: microbe, parasite or virus in culture; conditions: Bacillus subtilis, DSM402, read-out: concentration (MIC against B. subtilis DSM402)
S. aureus (CCUG1800T) = assay: MIC, microdilution, S. aureus CCUG1800T; assay type: cell-based, Staphylococcus aureus; conditions: Staphylococcus aureus
[10] = test system: MraY in B. subtilis TNVS284; assay: MraY localization; conditions: 1x MIC, 30 min (vancomycin) or 1 h
in vitro = conditions: human
E. coli [11] = conditions: for Outcome: checkerboard with mupirocin; for FICM (MICMcheckerboard/MICM): mupirocin alone 64 µg/mL
E. coli DNA gyrase = molecular target: T1, E. coli DNA gyrase (Escherichia coli, UniProt P0AES4+P0AES6); assay: In vitro DNA gyrase cleavage assay; assay type: biochemical
T1 construct: purchased Inspiralis
T1 sequence (P0AES4 whole entry, one chain of several): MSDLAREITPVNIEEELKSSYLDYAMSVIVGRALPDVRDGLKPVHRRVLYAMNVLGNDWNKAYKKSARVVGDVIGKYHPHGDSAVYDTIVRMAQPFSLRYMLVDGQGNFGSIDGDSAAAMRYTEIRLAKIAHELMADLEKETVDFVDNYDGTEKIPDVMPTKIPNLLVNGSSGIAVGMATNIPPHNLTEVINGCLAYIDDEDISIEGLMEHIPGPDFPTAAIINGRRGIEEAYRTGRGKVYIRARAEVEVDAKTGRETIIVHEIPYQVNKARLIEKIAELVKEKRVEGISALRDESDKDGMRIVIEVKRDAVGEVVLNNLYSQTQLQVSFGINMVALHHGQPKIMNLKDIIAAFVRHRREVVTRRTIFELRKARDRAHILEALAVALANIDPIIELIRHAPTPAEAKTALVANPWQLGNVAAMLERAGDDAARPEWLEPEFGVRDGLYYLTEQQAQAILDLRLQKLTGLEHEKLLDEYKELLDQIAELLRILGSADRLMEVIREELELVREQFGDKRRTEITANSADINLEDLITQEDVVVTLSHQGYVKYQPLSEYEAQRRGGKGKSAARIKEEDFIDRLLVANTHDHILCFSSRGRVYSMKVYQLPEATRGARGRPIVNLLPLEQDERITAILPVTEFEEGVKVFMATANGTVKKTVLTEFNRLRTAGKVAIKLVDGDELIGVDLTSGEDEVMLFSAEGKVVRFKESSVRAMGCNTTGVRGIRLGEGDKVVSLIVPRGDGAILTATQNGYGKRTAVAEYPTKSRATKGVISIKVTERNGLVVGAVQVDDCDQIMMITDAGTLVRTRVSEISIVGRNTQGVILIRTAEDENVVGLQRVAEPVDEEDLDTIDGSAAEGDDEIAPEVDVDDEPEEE

E. coli [12] = assay: microbe, parasite or virus in culture; conditions: Escherichia coli, read-out: MICC (MIC of the test compound alone)
P. aeruginosa (PAO1) = assay: MIC, microdilution, P. aeruginosa PAO1; assay type: cell-based, Pseudomonas aeruginosa; conditions: Pseudomonas aeruginosa, PAO1
[13] = test system: norfloxacin-resistant clinical isolate of E. coli; assay: MIC, microdilution, norfloxacin-resistant clinical isolate of E. coli; assay type: cell-based, Escherichia coli; conditions: Escherichia coli, read-out: MIC E. coli (norfloxacin-resistant strain)
[14] = test system: MurG in B. subtilis TNVS175; assay: MurG localization; assay type: cell-based, Bacillus subtilis; conditions: for protein localization MurG: 1x MIC, 30 min (vancomycin) or 1 h
B. subtilis DSM402 [15] = conditions: Table 2; cells treated with 1x MIC
E. coli (W3110) = assay: MIC, microdilution, E. coli W3110; assay type: cell-based, Escherichia coli; conditions: Escherichia coli
E. coli topoisomerase IV = molecular target: T2, E. coli topoisomerase IV (Escherichia coli, UniProt P0AFI2+P20083); assay: In vitro topoisomerase IV cleavage assay; assay type: biochemical; conditions: read-out: % topoisomerase IV inhibition
T2 construct: purchased Inspiralis
T2 sequence (P0AFI2 whole entry): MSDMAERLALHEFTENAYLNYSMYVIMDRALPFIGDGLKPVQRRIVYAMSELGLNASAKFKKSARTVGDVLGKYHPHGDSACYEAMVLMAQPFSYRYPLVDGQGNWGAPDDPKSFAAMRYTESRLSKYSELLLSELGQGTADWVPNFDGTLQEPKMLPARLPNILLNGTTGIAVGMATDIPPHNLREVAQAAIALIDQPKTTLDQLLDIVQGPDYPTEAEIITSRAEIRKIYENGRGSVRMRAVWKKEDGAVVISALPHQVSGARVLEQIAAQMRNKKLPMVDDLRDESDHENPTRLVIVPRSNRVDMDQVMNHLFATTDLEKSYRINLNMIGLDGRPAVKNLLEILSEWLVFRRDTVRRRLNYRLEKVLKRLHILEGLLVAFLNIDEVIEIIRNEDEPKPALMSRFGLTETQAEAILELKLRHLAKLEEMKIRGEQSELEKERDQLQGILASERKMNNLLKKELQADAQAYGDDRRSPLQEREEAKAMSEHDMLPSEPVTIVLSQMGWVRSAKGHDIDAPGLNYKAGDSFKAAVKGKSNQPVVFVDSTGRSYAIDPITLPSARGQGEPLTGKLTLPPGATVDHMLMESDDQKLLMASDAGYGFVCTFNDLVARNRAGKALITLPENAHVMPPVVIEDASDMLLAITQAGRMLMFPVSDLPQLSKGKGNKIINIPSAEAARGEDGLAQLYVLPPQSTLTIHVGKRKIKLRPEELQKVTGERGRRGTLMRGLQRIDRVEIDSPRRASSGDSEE
T2 sequence (P20083 whole entry): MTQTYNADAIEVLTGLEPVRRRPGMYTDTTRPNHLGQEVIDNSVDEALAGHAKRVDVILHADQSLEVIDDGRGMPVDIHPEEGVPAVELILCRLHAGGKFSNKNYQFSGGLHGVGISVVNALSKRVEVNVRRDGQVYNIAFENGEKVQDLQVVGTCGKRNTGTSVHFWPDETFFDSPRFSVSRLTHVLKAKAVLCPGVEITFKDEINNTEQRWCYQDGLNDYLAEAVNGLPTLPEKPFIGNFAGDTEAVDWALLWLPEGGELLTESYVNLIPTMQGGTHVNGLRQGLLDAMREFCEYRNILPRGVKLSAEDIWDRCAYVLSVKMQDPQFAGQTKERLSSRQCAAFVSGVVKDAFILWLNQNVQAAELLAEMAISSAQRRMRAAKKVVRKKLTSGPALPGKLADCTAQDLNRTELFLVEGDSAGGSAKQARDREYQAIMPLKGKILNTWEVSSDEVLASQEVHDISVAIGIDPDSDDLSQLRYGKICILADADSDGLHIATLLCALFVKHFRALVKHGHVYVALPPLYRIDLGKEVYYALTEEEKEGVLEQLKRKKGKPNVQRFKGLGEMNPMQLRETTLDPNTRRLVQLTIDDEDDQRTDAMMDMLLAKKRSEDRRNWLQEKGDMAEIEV

[16] = read-out: MIC S. aureus (CCUG1800T)
[17] = read-out: concentration (MIC against E. coli W3110)
[18] = Gram-negative strain, average of duplicate experiments, read-out: MIC E. coli (W3110)

Compound	MreB mobility (MreB in B. subtilis MW10)	PG integrity (B. subtilis DSM402 [1])	MIC [2] [µM]	CWB inhibited? [3]	MIC [4] [µM]	DAPI (E. coli W3110)	phase contrast (E. coli W3110)	FM4-64 (E. coli W3110)	gyrase inhibition (E. coli W3110)	membrane damage (E. coli W3110)	protein localization PonA [5]	GlpT (E. coli BCB472)	protein localization PbpB [6]	MIC (E. faecalis (ATCC 19433)) [µM]	DAPI (B. subtilis DSM402 [7])	phase contrast (B. subtilis DSM402 [7])	FM4-64 (B. subtilis DSM402 [7])	gyrase inhibition (B. subtilis DSM402 [7])	membrane damage (B. subtilis DSM402 [7])	MIC [8] [µM]	other results
O=C(O)c1cn(C2CC2)c2cc(N3CCNCC3)c(F)cc2c1=O [Cip, ciprofloxacin, reference compound]	mobile	intact	2.26 (≈ 0.749 µg/mL)	no	7.54 (≈ 2.5 µg/mL)	condensed	dark	smooth	yes	no	septal	smooth	smooth	6.03 (≈ 2 µg/mL)	condensed	dark	few patches	yes	possibly	96.6 (≈ 32 µg/mL)	MreB mobility (MreB in B. subtilis MW10; listed as ciprofloxacin): did not affect either MreB mobility or localization; MIC (B. subtilis DSM402 [9]): 3.01 µM (≈ 0.997 µg/mL); MIC (S. aureus (CCUG1800T); [16]): 3.01 µM (≈ 0.997 µg/mL); protein localization MraY [10]: rough
CCn1cc(C(=O)O)c(=O)c2cc(F)c(N3CCNCC3)cc21 [Nor, norfloxacin, reference compound]	mobile with static foci	intact	1.56 (≈ 0.498 µg/mL)	no	9.39 (≈ 3 µg/mL)	condensed	dark	smooth	yes	no	septal/patchy	smooth	smooth	4.69 (≈ 1.5 µg/mL)	condensed	dark	few patches	yes	possibly	100 (≈ 32 µg/mL)	MreB mobility (MreB in B. subtilis MW10; listed as norfloxacin): the same effect was observed; IC50 at 24 h (in vitro): 48.2 ± 3.92 µM; protein localization PonA ([5]; listed as norfloxacin): accumulation in distinct foci at the cell membrane; Outcome (E. coli [11]): additive (>0.5 to ≤4.0 as additive (no interaction)); FICM (MICMcheckerboard/MICM) (E. coli [11]): 0.5; inhibition at 10 µM (E. coli DNA gyrase): 73.6%; MIC (E. coli [12]): 0.125 µg/mL; protein localization PbpB ([6]; listed as norfloxacin): no effect on the other two proteins; MIC (P. aeruginosa (PAO1)): 6.26 µM (≈ 2 µg/mL); MIC ([13]; norfloxacin-resistant clinical isolate): 50.1 µM (≈ 16 µg/mL); protein localization MurG [14]: smooth/spotty; protein localization MurG ([14]; listed as norfloxacin): mostly smooth phenotype; larger MurG clusters ([14]; quantification of microscopy images): up to 30%; μM (concentration used, 1x MIC) (B. subtilis DSM402 [15]): 18.11 µM; MIC (B. subtilis DSM402 [9]): 18.1 µM (≈ 5.78 µg/mL); MIC (S. aureus (CCUG1800T); [16]): 3.13 µM (≈ 1 µg/mL); protein localization MraY [10]: rough; protein localization MraY ([10]; listed as norfloxacin): no effect on the other two proteins; MIC (E. coli (W3110); [17]): 0.37 µM; MIC (E. coli (W3110); [18]): 0.39 µM
CCn1cc(C(=O)O)c(=O)c2cc(F)c(N3CCN(CNc4ccc([N+](=O)[O-])cc4)CC3)cc21 [compound 21]	much smaller clusters and more clusters per cell; also recorded: mobile with static foci	came close to the cutoff value; also recorded: Intact	6.39 (≈ 3 µg/mL)	yes ^b	4.26 (≈ 2 µg/mL)	condensed	dark	Smooth	yes	no	neither compound affected the localization; also recorded: septal	Smooth	neither compound affected the localization; also recorded: smooth	2.13 (≈ 1 µg/mL)	condensed	dark	smooth	yes	no	34.1 (≈ 16 µg/mL)	FICC (fractional inhibitory concentration of the test compound) (E. coli [11]; MICCcheckerboard/MICC): 0.0039; Outcome (E. coli [11]): additive (>0.5 to ≤4.0 as additive (no interaction)); FICM (MICMcheckerboard/MICM) (E. coli [11]): 1; FICI (fractional inhibitory concentration index) (E. coli [11]; with mupirocin, FICC+FICM): 1.004; inhibition at 10 µM (E. coli DNA gyrase): 77.9%; MIC (E. coli [12]): 0.125 µg/mL; MIC (P. aeruginosa (PAO1)): 2.13 µM (≈ 1 µg/mL); MIC [13]: 17 µM (≈ 8 µg/mL); protein localization MurG [14]: only visible in the proximity of the cell poles; also recorded: polar spotty; inhibition at 10 µM (E. coli topoisomerase IV): 45.5%; μM (concentration used, 1x MIC) (B. subtilis DSM402 [15]): 2.13 µM; MIC (B. subtilis DSM402 [9]): 2.13 µM (≈ 1 µg/mL); MIC (S. aureus (CCUG1800T); Tab. S10, DNA gyrase side, strain not given, values equal S. aureus CCUG1800T of Table 1, read-out: MIC): 2.13 µM (≈ 1 µg/mL); MIC (S. aureus (CCUG1800T); [16]): 2.13 µM (≈ 1 µg/mL); protein localization MraY [10]: neither compound affected the localization; also recorded: rough; MIC (E. coli (W3110); [17]): 0.266 µM; MIC (E. coli (W3110); E. coli W3110, converted from 0.266 μM, read-out: MIC): 0.125 µg/mL; MIC (E. coli (W3110); [18]): 0.266 µM; MIC (E. coli (W3110); Tab. S10, topoisomerase IV side, strain not given, values equal E. coli W3110 of Table 1, read-out: MIC): 0.266 µM
